Patent US20220033405A1, “PHARMACEUTICAL COMPOSITION FOR PREVENTING OR TREATING CANCER CONTAINING PLK1 INHIBITOR AS ACTIVE INGREDIENT” (NATIONAL CANCER CENTER, priority 2018, published 2022)

Legend:
[1] = tested on: SNU449 human liver cancer cells; assay: Reactivity of M2 variants in SNU449; type: cell-based
Experimental: (§1) To examine the ability of the compound to inhibit the growth of the breast cancer cell line, the compounds was treated at each indicated μM concentration 1 and 3 days after cell attachment, and the control was treated with a 0.1% solvent (DMSO). After another two days, the cell lines that were attached to the culture plate and grew were rinsed with 1×PBS and treated with 4% paraformaldehyde at room temperature for 10 minutes to fix the cells. Then, after cells were rinsed twice with PBS, the fixed cells were treated with a 0.5% Triton X-100 solution and reacted at room temperature for 15 minutes, rinsed another three times with PBS, and then treated with a DAPI reagent at 0.5 μg/ml, and reacted at 37° C. for 10 minutes to stain the cell nuclei. After the cells were additionally rinsed once with PBS, cells stained with DAPI were photographed by Cytation 3, and the resulting images were analyzed with Gen5 software (Biotek, USA). Meanwhile, cells that grew in a floating manner without being attached to the culture plate were treated with a 4% paraformaldehyde solution, reacted at room temperature for 10 minutes to fix the cells, and then photographed in a bright field by Cytation3, and the resulting images were analyzed by Gen5 software (Biotek, USA).
(§2) To analyze the ability to inhibit the growth of liver cancer cell lines, 6.6×10^3 HepG2 cells per well, 1×10^3 cells of each of Hep3B, SNU-475, and SNU-449 per well, and 2×10^3 SNU-387 cells per well were aliquoted in a 96-well plate, cultured in the same manner as described above, treated with Compound 2 (M2), Compound 3 (M4), Compound 4 (M21), Compound 5 (M23), and Compound 6 (M25), and then the ability to inhibit the growth of cells was analyzed.

[2] = tested on: HepG2 human liver cancer cells; assay: Reactivity of M2 variants in HepG2; type: cell-based
Experimental: as §1, §2

[3] = tested on: JIMT1 human breast cancer cells; assay: Cancer cell growth inhibition, M2 variants in JIMT1; type: cell-based
Experimental: as §1

[4] = target: T1, PBD of PLK1 (GST-tagged target protein) (Homo sapiens, UniProt P53350); assay: IC50 measurement by FP assay; type: binding; details: FITC-labeled 1010pT peptide
T1 construct: made in house
Experimental: The IC50 of the compound was intended to be analyzed by performing the FP assay shown in Example 1 on the compound and the hit compound discovered by the primary and secondary compound screening and various derivatives thereof. For this purpose, a target protein to which GST-tag was bound was isolated using a GST resin, and 15 mg/ml of the pure target protein to which GST-tag was bound was obtained by finally performing gel filtration. The target protein was diluted with a reaction buffer and prepared at each of concentrations of 12 uM, 3 uM, and 1.5 uM, and an FITC-bound peptide (FITC-labeled 1010pT (GVLS-pT-LI-NH2)) stored in a brown tube was diluted with a reaction buffer and prepared at a concentration of 30 nM. Further, the compound at a concentration of 100 mM was diluted with a reaction buffer and prepared at each of 160.0 uM, 80.0 uM, 40.0 uM, 20.0 uM, 10.0 uM, 5.0 uM, 2.5 uM, 1.25 uM, 0.625 uM, 0.3125 uM, 0.15625 uM, and 0.0 uM. […] When the reaction was completed, the fluorescence polarization value was measured using Infinite F200 Pro (TECAN Group Ltd, Switzerland) after setting the excitation wavelength and the emission wavelength to 485 nm and 535 nm, respectively, and setting the G-Factor to 1.077. […] Binding curves were analyzed using Graphpad Prism (GraphPad Software, San Diego, Calif., USA).

[5] = target: T2, PBD domain of PLK1 (PLK1-PBD protein) (Homo sapiens, UniProt P53350); assay: Compound screening by fluorescence polarization (FP) competition assay; type: binding; details: FITC-labeled 1010pT peptide + PLK1-PBD; about 300 with no compound added
T2 construct: a 4 μM PLK1-PBD protein
Experimental: For this purpose, a fluorescence polarization competition assay was performed by mixing a conjugate of a PBD site of PLK1 purified in a solution and a peptide (FITC-labeled 1010pT (GVLSpTLI-NH2)) to which FITC fluorescence was bound with a low molecular weight compound to be screened.
More specifically, after a reaction was performed at room temperature for 30 minutes by preparing a 4 μM PLK1-PBD protein, a 10 nM peptide (FITC-labeled 1010pT (GVLSpTLI-NH2)), and a 20 μl candidate compound at each concentration and putting the respective components into a black 96-well plate for mixing, fluorescence polarization (mp) values were measured using Infinite F200 Pro (TECAN Group Ltd, Switzerland). An average value was derived by performing this experiment three times by the same method, and the excitation wavelength and the emission wavelength were set at 485 nm and 535 nm, respectively.

[6] = tested on: SNU-449; assay: Cell cycle by flow cytometry, phospho-histone H3 (Ser10) staining; type: cell-based; details: M2 20, 40, 80 μM, BI2536 20 nM
Experimental: Flow cytometry equipment was used to confirm the effect on the cell cycle in the case of treatment with Compound 2 (M2). SNU-449, which is one of the liver cancer cell lines, were treated with Compound 2 (M2) at each of concentrations of 20, 40, and 80 μM after 1 day and 3 days, and were harvested after another 2 days.
Furthermore, it was intended to more specifically stain a cell population that stopped in the metaphase of cell division using a phospho-histone H3 (Ser10) antibody capable of specifically staining only the cells that stopped in the metaphase of cell division. As a positive control, cells were treated with BI2536 known as a PLK1 kinase inhibitor at 20 nM and used to observe cells in the metaphase of cell division and an increase in the G2/M phase.

[7] = tested on: HepG2 orthotopic xenograft; assay: Liver cancer orthotopic xenograft model (HepG2), 19 injections; type: in vivo, BalB/c nude mice; details: M2 9.1 mg/kg, BI2536 1 mg/kg, 19 injections
Experimental: 5×10^6 HepG2 cells, which are a hepatocellular carcinoma cell line, were injected into the back skin of BalB/c nude mice, and when a sufficient cancer tissue was formed about 3 weeks later, the tissue was removed, uniformly cut into 1 mm^3, and transplanted into the right median lobe of the liver by excising the abdomen within 1 cm.
The doses of 9.1 mg/kg of M2 and 1 mg/kg of BI2536 were selected based on the present inventor's previous in vitro experiments on HCC cells. Administration began 7 days after cell injection, and an equivalent amount of DMSO for the highest concentration of drug was used as a solvent control for each experiment. Each drug was injected a total of 19 injections based on 5 times/week.

[8] = tested on: HepG2 cells; assay: Cell viability after treatment (Hoechst 33342); type: cell-based; details: HepG2, various concentrations, two treatments 48 hours apart
Experimental: HepG2 cells, a hepatocellular carcinoma cell line, were plated with 4 to 6 replications at each hit compound concentration in a 96-well microtiter plate supplemented with a culture medium. The hit compound dissolved in DMSO was added the next day according to the design of experiments, and the number of seeded cells was determined by the cell density reaching 80% on the final day of the protocol treated as a cell control. After 24 hours of cell seeding, cells were treated with hit compounds (M2 and BI2536) at various concentrations, and 48 hours after primary treatment, the medium was aspirated and then secondary treatment was performed. After 48 hours, cell nuclei were visualized by 2.5 μM Hoechst 33342 staining at 37° C. for 30 minutes, then the medium was aspirated and washed with a fresh medium. The plate was read using Cytation™ 3 (BioTek, USA), the cell viability was analyzed, and the results were presented as a relative percentage of viable cells after treatment with the hit compound compared to the control treatment.

[9] = tested on: PLK1; assay: PLK1 position in the cell (r-tubulin, PLK1, DAPI staining); type: cell-based
[10] = tested on: HepG2 cell; assay: Apoptosis by annexin V-FITC / PI flow cytometry; type: cell-based; details: HepG2, 3 days; M2 20 or 100 μM; BI2536 20 or 100 nM
Experimental: To analyze the pattern of apoptosis by exposure to M2, HepG2 cell, a hepatocellular carcinoma cell line, were treated with 20 or 100 μM M2 and 20 or 100 nM BI2536 for 3 days. The apoptosis was detected by annexin V-fluorescein isothiocyanate (annexin V-FITC) and propidium iodide (PI) staining of necrotic and apoptosis cells. First, cells were harvested and washed once with PBS. The cells were then resuspended in a 100 μl binding buffer containing 4 μl of Annexin V (BD, 51-65874X) and PI (BD, 51-66211E). The cells were stained at 37° C. for 15 minutes in the dark and then analyzed using FACSan (BD, San Jose, Calif.). Data was analyzed using CELLQuest software (BD).

[11] = tested on: MDA-MB-468 cells; assay: Cancer cell growth inhibition (DAPI nuclei count), breast cancer line; type: cell-based; details: treated 1 and 3 days after attachment
Experimental: For this purpose, experiments were performed using liver cancer, breast cancer, hematologic cancer, cervical cancer, and prostate cancer cell lines, a murine liver cancer cell line HEPA 1-6 and a breast cancer cell line MDA-MB-468 were cultured in a DMEM medium supplemented with 10% fetal bovine serum (FBS) and 1% penicillin/streptomycin, the other cell lines were cultured in a RPMI1640 medium supplemented with the same additives, and the cell lines were used in the experiment.
To examine the ability of the compound to inhibit the growth of the breast cancer cell line, the compounds was treated at each indicated μM concentration 1 and 3 days after cell attachment, and the control was treated with a 0.1% solvent (DMSO). […] After the cells were additionally rinsed once with PBS, cells stained with DAPI were photographed by Cytation 3, and the resulting images were analyzed with Gen5 software (Biotek, USA). Meanwhile, cells that grew in a floating manner without being attached to the culture plate were treated with a 4% paraformaldehyde solution, reacted at room temperature for 10 minutes to fix the cells, and then photographed in a bright field by Cytation3, and the resulting images were analyzed by Gen5 software (Biotek, USA). […]

T2 sequence (P53350 367-603 limits assumed): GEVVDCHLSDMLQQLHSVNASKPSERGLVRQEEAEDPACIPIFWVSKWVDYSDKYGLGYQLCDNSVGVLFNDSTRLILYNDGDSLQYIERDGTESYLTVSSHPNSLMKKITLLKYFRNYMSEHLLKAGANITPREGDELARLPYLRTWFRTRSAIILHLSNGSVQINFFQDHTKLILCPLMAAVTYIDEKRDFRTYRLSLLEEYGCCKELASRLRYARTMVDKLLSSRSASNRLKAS
T1 sequence (P53350 367-603 limits assumed): as above

For `Cc1cc2nc3c(=O)[nH]c(=O)nc-3n(CCC#N)c2cc1C` [Compound 10, 3-{7,8-dimethyl-2,4-dioxo-2H,3H,4H,10H-benzo[g]pteridin-10-yl}propanenitrile], the “number of cancer cells” value [1] was “a relatively remarkable cancer cell reduction effect did not appear”.
In the case of `Cc1cc2nc3c(=O)[nH]c(=O)nc-3n(C[C@H](O)[C@H](O)[C@H](O)CO)c2cc1C` [Compound 12, 7,8-Dimethyl-10-[(2S,3S,4R)-2,3,4,5-tetrahydroxypentyl]benzo[g]pteridine-2,4-dione], the “areas of liver cancer cells” value [2] is reported as “relatively low reactivity appeared” and the “number of cancer cells” value [1] is reported as “a relatively remarkable cancer cell reduction effect did not appear”.
For `Cc1cc2nc3c(=O)[nH]c(=O)nc-3n(C)c2cc1C` [Compound 7, 7,8,10-trimethyl-2H,3H,4H,10H-benzo[g]pteridine-2,4-dione], the “areas of liver cancer cells” value [2] was “remarkably reduced in a dose-dependent manner”, the “number of cancer cells” value [3] was “remarkably reduced the number of cancer cells in a dose-dependent manner” and the “number of cancer cells” value [1] was “the number of cancer cells was remarkably reduced in a dose-dependent manner”.
With `Cc1cccc(OCCn2c3nc(=O)[nH]c(=O)c-3nc3cc(C(F)(F)F)ccc32)c1` [Compound 11, 10-[2-(3-methylphenoxy)ethyl]-7-(trifluoromethyl)-2H,3H,4H,10H-benzo[g]pteridine-2,4-dione] the “number of cancer cells” value [1] was “a relatively remarkable cancer cell reduction effect did not appear”.
For `O=C(O)c1ccc2[nH]c3nc(=O)[nH]c(=O)c-3nc2c1` [Compound 1, 2,4-Dioxo-1,2,3,4-tetrahydrobenzo[g]pteridine-7-carboxylic acid], the IC50 [4] was about 25 µM and the fluorescence polarization value [5] was 180 mp.
`CC[C@@H]1C(=O)N(C)c2cnc(Nc3ccc(C(=O)NC4CCN(C)CC4)cc3OC)nc2N1C1CCCC1` [BI2536, reference compound] was tested, and the “proportion of polyploid cells” value [6] was “remarkably increased”, the “proportion of phospho-histone H3-positive cells” value ([6]; compared to CT) was “increase in the proportion” and the “progression of the HCC xenograft calculated by the growth inhibition index” value [7] was “suppressed the progression of the HCC xenograft”. For the same compound, the “growth of tumor cells (macroscopic morphology, MRI)” value ([7]; 5 times/week) was “the growth of tumor cells was suppressed”, the cell viability [8] was “the relatively less the cell viability became” and the chromosome segregation [9] was “abnormal chromosome segregation was observed”. The “position of PLK1” value ([9]; middle stage of cell division) was “did not seem to make a relatively large difference”, the “r-tubulin located in the centrosome (staining / position)” value ([9]; middle stage of cell division) was “did not seem to make a relatively large difference” and the apoptosis cells [10] was “apoptosis cells were increased”. For the same compound, the “apoptosis with increasing dose” value [10] was “apoptosis was increased in a dose-dependent manner”.
`Cc1cc2nc3c(=O)[nH]c(=O)nc-3n(C)c2cc1C=O` [Compound 8, 7,10-dimethyl-2,4-dioxo-2H,3H,4H,10H-benzo[g]pteridine-8-carbaldehyde] was tested, and the “number of cancer cells” value [3] was “remarkably reduced the number of cancer cells in a dose-dependent manner” and the “number of cancer cells” value [1] was “the number of cancer cells was remarkably reduced in a dose-dependent manner”.
`O=c1nc2[nH]c3cc(Cl)ccc3nc-2c(=O)[nH]1` [Compound 3, 8-chloro-1H,2H,3H,4H-benzo[g]pteridine-2,4-dione] was tested, and the number of cells [11] was “the number of cells was remarkably reduced in proportion to the treatment concentration”.
